Reference: patent US8604048B2, “Pyridocarbazole type compounds and applications thereof” (Centre National de la Recherche Scientifique, priority 2009, dated 2013)

Tests used:
HeLa cells = test: Cell growth test (MTT), HeLa; assay type: cell-based; conditions: Homo sapiens, MTT test after 48 h, read-out: IC50 (concentration necessary to inhibit 50% of cell growth)
Experimental: (§1) The cell growth tests are carried out in transparent 96-well microplates (Greiner) after having seeded 100 μl/well of a cell solution having 2·10^5 cells/ml to 5·10^5 cells/ml (depending on the cell lines). After incubating for 24 h at 37° C. with 5% CO2, the culture medium is removed and replaced with solutions of the molecule to be tested at various concentrations. The cells are incubated with these molecules for an additional 48 h at 37° C. with 5% CO2. After elimination of the medium, the cells are washed with blank RPMI (Gibco, Invitrogen) then incubated with 3-(4,5-dimethylthiazol-2-yl)-2,5-diphenyltetrazolium bromide or MTT (0.5 mg/ml final concentration) for 4 h at 37° C. with 5% CO2. MTT (Sigma Aldrich) makes it possible to estimate the viability of the cells by measuring the activity of a mitochondrial enzyme. Indeed, in living cells, mitochondrial dehydrogenases are capable of cleaving the tetrazolium ring, thus leading to the formation of formazan crystals that are insoluble in an aqueous medium. These crystals are dissolved with the addition of a solubilizing solution (isopropanol, 10% Triton X100, 0.1 N HCl). After stirring, the absorbance is measured at 570 nm using the FLUOstar OPTIMA microplate reader. […]
(§2) The viability of the cells was evaluated using an MTT test after 48 h of exposure with various concentrations of molecules (from 100 μM to 0.001 μM). […]

MES-SA cells = test: Cell growth test (MTT), MES-SA; assay type: cell-based; conditions: Homo sapiens, MTT test after 48 h, read-out: IC50 (concentration necessary to inhibit 50% of cell growth)
Experimental: as §1, §2

786-O cells = test: Cell growth test (MTT), 786-O; assay type: cell-based; conditions: Homo sapiens, 786-0, MTT test after 48 h, read-out: IC50 (concentration necessary to inhibit 50% of cell growth)
Experimental: as §1, §2

NCI-H460 cells = test: Cell growth test (MTT), NCI-H460; assay type: cell-based; conditions: Homo sapiens; NCI-H460, MTT test after 48 h; read-out: IC50 (concentration necessary to inhibit 50% of cell growth)
Experimental: as §1, §2

MES-SA DX5 cells = test: Cell growth test (MTT), MES-SA DX5; assay type: cell-based; conditions: Homo sapiens; MES-SA DX5 (multi-drug resistant, P-glycoprotein), MTT test after 48 h; read-out: IC50 (concentration necessary to inhibit 50% of cell growth)
Experimental: as §1, §2

purified tubulin = test: In vitro assembly of purified tubulin; assay type: biochemical; conditions: tubulin 1 mg/ml; Compound 1 at 25, 50, 100 μM
Experimental: FIG. 5 compares the effects of the Compound 1 of the invention with the effect of paclitaxel (Taxol®) on the assembly of the tubulin purified in vitro. Purified tubulin (1 mg/ml) is incubated in PEM buffer in the presence of GTP (1 mM), MgCl2 (5 mM), DAPI (10 μM) at 37° C. The effect of Compound 1 of the invention at various concentrations (×25 μM, ⊚ 50 μM and Δ 100 μM) is compared to that of paclitaxel (Taxol®) (▪) and of DMSO ( ? );
In order to know whether Compound 1 of the invention exerts its stabilizing effect via a direct action on tubulin, such as paclitaxel does, or by means an effector, its effect on the in vitro assembly of tubulin in microtubules has been analyzed. The first experiments were carried out on purified tubulin (1 mg/ml).

[1] = test system: actin network of HeLa cells; test: Stability of the actin network to a depolymerization induced by latrunculin B; assay type: cell-based, Human; conditions: HeLa cells, confocal microscope
Experimental: 7. a step of analysis of the effect of the compound to be tested on the actin network, via incubation of HeLa cells with the compound to be tested. […] When the actin network is stabilized, the latrunculin-induced depolymerization of the actin network is limited.
The cells are grown on glass coverslips and incubated as for the tubulin staining. After elimination of the medium, the cells are washed with warm PBS then fixed, by addition of a solution of PBS/3.7% formaldehyde for 30 minutes at 37° C. The cells are washed with PBS then permeabilized with a solution of PBS/0.2% Triton X100 for 15 minutes at room temperature. After another washing with PBS, the cells are incubated with a solution of PBS/1% BSA for 30 minutes at room temperature. The cells are then incubated with phalloidin (0.165 μM final concentration) labelled with Alexa Fluor® 488 (Molecular Probes, Invitrogen) for 20 minutes at room temperature. The cells are washed a final time with PBS then dehydrated with pure ethanol. Finally, the cells are fixed to slides using a Fluorsave™ mounting solution.
8) Test for the Action on the Actin Cytoskeleton: Protocol for Evaluating, in Cells, the Stability of the Actin Network to a Depolymerization Induced by Latrunculin B
3 days before the experiment, glass coverslips are deposited under sterile conditions in 24-well microplates. In each well, HeLa cells (15 000 cells per well) in the exponential growth phase are seeded in 500 μl of RPMI medium.
PBS (phosphate buffered saline, ref. P4417, Sigma), PBS/1% BSA (bovine serum albumin, Ref. A3059, Sigma), aliquots of 15 ml, stored at −20° C.; PBS/0.2% Triton X100 (Ref. T8787, Sigma); PBS/0.01% Tween® 20 (Ref. P9916, Sigma); PBS/0.3% BSA/0.02% NaN3 (Ref. for the NaN3: 6688, Merck), aliquots of 15 ml stored at −20° C. Phalloidin A488, (Ref. A12379, Invitrogen). L4: rabbit anti-detyrosinated-tubulin polyclonal antibody (cf. Fonrose et al., Cancer Res., […], 67:3371-3378). Anti-rabbit antibody coupled to Cyanine 3 (Ref. 111.165.144, Jackson Laboratories). […]

Row | SMILES | IC50 (HeLa cells) | IC50 (MES-SA cells) | IC50 (786-O cells) | IC50 (NCI-H460 cells) | IC50 (MES-SA DX5 cells) | Assembly of purified tubulin in vitro (purified tubulin) | Protection of the actin network from depolymerization by latrunculin B [1]
1 | Cc1c2cc[nH]c(=O)c2c(C)c2c1[nH]c1ccc(OCc3ccccc3)cc12 [Compound 3, 9-benzyloxy-5,11-dimethyl-2H,6H-pyrido[4,3-b]carbazol-1-one] | 3.05 µM | 33.9 µM | 3.34 µM | 1.52 µM | 13.9 µM |  | 
2 | CC(=O)O[C@H]1C(=O)[C@@]2(C)[C@H]([C@H](OC(=O)c3ccccc3)[C@]3(O)C[C@H](OC(=O)[C@H](O)[C@@H](NC(=O)c4ccccc4)c4ccccc4)C(C)=C1C3(C)C)[C@]1(OC(C)=O)CO[C@@H]1C[C@@H]2O [paclitaxel, reference compound] |  |  |  |  |  | can induce the assembly of tubulin | Neither DMSO nor paclitaxel (Taxol®) are able to induce such a protective effect
